In test [1] the target is T1, Glucagon receptor (Homo sapiens, UniProt P47871). The experiment in a line: Percentage inhibition of human glucagon receptor function expressed in CHO cells at a concentration of 20 uM. Format: cell-based.
In test [2] the target is T1, Glucagon receptor. The experiment in a line: Tested for its ability to inhibit cAMP production in human glucagon receptor expressed CHO cells. The class given is functional, cell-based. A general note: cAMP levels reflect the balance of adenylyl cyclase and phosphodiesterase activity.
Test [3] concerns the target T1, Glucagon receptor. Put plainly: biochemical.
Description: Tested for its inhibitory activity against human glucagon receptor (hGR) expressed in CHO cells

T1 sequence (P47871 whole entry): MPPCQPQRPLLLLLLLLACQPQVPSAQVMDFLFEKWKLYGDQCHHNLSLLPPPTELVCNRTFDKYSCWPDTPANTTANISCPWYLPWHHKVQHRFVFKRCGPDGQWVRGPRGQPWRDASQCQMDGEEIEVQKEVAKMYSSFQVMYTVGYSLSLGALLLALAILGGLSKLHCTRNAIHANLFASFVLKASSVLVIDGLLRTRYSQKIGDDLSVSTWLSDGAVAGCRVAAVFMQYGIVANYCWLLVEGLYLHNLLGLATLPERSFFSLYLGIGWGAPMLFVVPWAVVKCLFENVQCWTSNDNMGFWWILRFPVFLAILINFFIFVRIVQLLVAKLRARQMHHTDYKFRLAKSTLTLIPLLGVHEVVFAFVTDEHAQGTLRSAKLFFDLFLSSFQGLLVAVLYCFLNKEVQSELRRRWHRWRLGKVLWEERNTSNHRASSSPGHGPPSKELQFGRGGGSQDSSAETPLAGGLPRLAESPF

In general, inhibition refers to the percentage by which the read-out fell short of the control. With `CCCCCc1c(C(C)C)nc(C(C)C)c(CO)c1-c1ccccc1OC`, the inhibition at Glucagon receptor [1] was determined as 27%.

As for `CCCCCc1c(C(C)C)nc(C(C)C)c(CO)c1-c1ccc(C(F)(F)F)cc1`, the inhibition against Glucagon receptor [1] was determined as 35%.

The IC50 is the midpoint of a concentration-inhibition curve. Read a low IC50 as greater potency in that assay. As to `CCCCCc1c(C(C)C)nc(C(C)C)c(CO)c1-c1ccc(F)cc1O`, the IC50 against Glucagon receptor [2] was 0.12 µM; against Glucagon receptor [3], 0.19 µM.

In turn, `CCCCCc1c(C(C)C)nc(C(C)C)c(CO)c1-c1ccc(C(C)C)cc1` yielded an inhibition at Glucagon receptor [1] of 34%.

The molecule `CCCCCc1c(C(C)C)nc(C(C)C)c(CO)c1-c1ccc(O)cc1` came in with an inhibition against Glucagon receptor [1] of 24%.

`CCCCCc1c(C(C)C)nc(C(C)C)c(CO)c1-c1ccccc1N` had an IC50 against Glucagon receptor [3] of 2.3 µM.

For the molecule `CCCCCc1c(C(C)C)nc(C(C)C)c(CO)c1-c1cccc(C)c1`, the inhibition on Glucagon receptor [1] was 46%.

In turn, `CCC/C=C/c1c(C(C)C)nc(C(C)C)c(CO)c1-c1ccc(Cl)c(Cl)c1` showed an inhibition at Glucagon receptor [1] of 39%.

`CCCCCc1c(C(C)C)nc(C(C)C)c(CO)c1-c1ccc(OC)cc1` gave an inhibition on Glucagon receptor [1] of 37%.

In turn, `CCCCCc1c(C(C)C)nc(C(C)C)c(CO)c1-c1ccccc1NC(C)=O` showed an inhibition at Glucagon receptor [1] of 13%.

On Glucagon receptor [1], `CCCCCc1c(C(C)C)nc(C(C)C)c(CO)c1-c1cccc(Cl)c1` showed an inhibition of 49%.

In turn, `CC(C)=Cc1c(C(C)C)nc(C(C)C)c(O)c1-c1ccc(F)cc1` registered an IC50 at Glucagon receptor [3] of 7 µM.

`CCCCCc1c(C(C)C)nc(C(C)C)c(C)c1-c1ccccc1O` registered an inhibition against Glucagon receptor [1] of 11%.

For the molecule `CCCCCc1c(C(C)C)nc(C(C)C)c(CO)c1-c1ccccc1C`, the inhibition against Glucagon receptor [1] worked out at 33%.

At Glucagon receptor [1], `CCCCCc1c(C(C)C)nc(C(C)C)c(CO)c1-c1ccc2c(c1)CCCC2` returned an inhibition of 37%.

As to `CCCCCc1c(C(C)C)nc(C(C)C)c(CO)c1-c1cccc(C(F)(F)F)c1`, at Glucagon receptor [1], the inhibition turned out to be 25%.

The molecule `CCCCCc1c(C(C)C)nc(C(C)C)c(CO)c1-c1ccc(-c2ccccc2)cc1` showed an inhibition against Glucagon receptor [1] of 2%.

For the molecule `CCCCCc1c(C(C)C)nc(C(C)C)c(CO)c1-c1ccccc1CO`, the inhibition against Glucagon receptor [1] turned out to be 44%.

Turning to `CCCCCc1c(C(C)C)nc(C(C)C)c(CO)c1-c1ccc(CC)cc1`, the inhibition on Glucagon receptor [1] amounted to 42%.

At Glucagon receptor [3], `CCCCCc1c(C(C)C)nc(C(C)C)c(CO)c1-c1ccc(F)c(CO)c1` came in with a half-maximal inhibitory concentration (IC50) of 19 µM.

Regarding `CCCCCc1c(C(C)C)nc(C(C)C)c(CO)c1-c1cccc(OC)c1`, inhibition on Glucagon receptor [3] was half-maximal at 48 µM (IC50).

In turn, `CCCCCc1c(C(C)C)nc(C(C)C)c(CO)c1-c1ccc(F)cc1` gave an IC50 on Glucagon receptor [2] of 0.4 µM.

Consider `CCCCCc1c(C(C)C)nc(C(C)C)c(CO)c1-c1ccc(Cl)cc1Cl`, for which, at Glucagon receptor [1], the inhibition is 8%.

With `CCC/C=C/c1c(C(C)C)nc(C(C)C)c(CO)c1-c1ccc(S(C)(=O)=O)cc1`, at Glucagon receptor [1], the inhibition stood at 14%.

Regarding `CCCCCc1c(C(C)C)nc(C(C)C)c(CO)c1-c1ccc2ccccc2c1`, at Glucagon receptor [1], the inhibition worked out at 16%.

As for `CCCCCc1c(C(C)C)nc(C(C)C)c(CO)c1-c1cccc2ccccc12`, the inhibition at Glucagon receptor [1] is 6%.

For `CCCCCc1c(C(C)C)nc(C(C)C)c(CO)c1-c1ccc(F)cc1F`, the half-inhibitory concentration (IC50) at Glucagon receptor [3] came out at 11 µM.

(Values after ChEMBL document CHEMBL1135302, “Optimization of the 4-aryl group of 4-aryl-pyridine glucagon antagonists: development of an efficient, alternative synthesis” (Bioorg Med Chem Lett, 2002).)
